Source: patent publication US11725011B2, “Bicyclic urea kinase inhibitors and uses thereof” (The Broad Institute, Inc., priority 2016, dated 2023)

What was measured:
Assay in all cases: KINOMEscan
Format in all cases: binding
Details in all cases: 1 uM
IGF1R = IGF1R (Homo sapiens (Human), UniProt P08069)
CSNK1D = CSNK1D (Homo sapiens (Human), UniProt P48730)
[1] = biological target: TYK2 (JH2domain-pseudokinase) (Homo sapiens (Human), UniProt P29597)
[2] = biological target: JAK2 (JH1domain-catalytic) (Homo sapiens (Human), UniProt O60674)
FLT3 (N841I) = FLT3 (N841I) (Homo sapiens (Human), UniProt P36888, N841I)
BLK = BLK (Homo sapiens (Human), UniProt P51451)
NLK = NLK (Homo sapiens (Human), UniProt Q9UBE8)
BMPR2 = BMPR2 (Homo sapiens (Human), UniProt Q13873)
EPHB2 = EPHB2 (Homo sapiens (Human), UniProt P29323)
ULK2 = ULK2 (Homo sapiens (Human), UniProt Q8IYT8)
LZK = LZK (Homo sapiens (Human), UniProt O43283)
GSK3B = GSK3B (Homo sapiens (Human), UniProt P49841)
PRKCH = PRKCH (Homo sapiens (Human), UniProt P24723)
[3] = biological target: RSK1 (Kin.Dom.2-C-terminal) (Homo sapiens (Human), UniProt Q15418)
AURKC = AURKC (Homo sapiens (Human), UniProt Q9UQB9)
MLK2 = MLK2 (Homo sapiens (Human), UniProt Q02779)
[4] = biological target: RSK1 (Kin.Dom.1-N-terminal) (Homo sapiens (Human), UniProt Q15418)
CDK4-cyclinD1 = CDK4-cyclinD1 (Homo sapiens (Human), UniProt P11802)
NEK1 = NEK1 (Homo sapiens (Human), UniProt Q96PY6)
MEK5 = MEK5 (Homo sapiens (Human), UniProt Q13163)
WNK1 = WNK1 (Homo sapiens (Human), UniProt Q9H4A3)
CDK11 = CDK11 (Homo sapiens (Human), UniProt Q9BWU1)
YANK1 = YANK1 (Homo sapiens (Human), UniProt Q8WU08)
PIM2 = PIM2 (Homo sapiens (Human), UniProt Q9P1W9)
FGFR2 = FGFR2 (Homo sapiens (Human), UniProt P21802)
p38-alpha = p38-alpha (Homo sapiens (Human), UniProt Q16539)
CAMK4 = CAMK4 (Homo sapiens (Human), UniProt Q16566)
NEK7 = NEK7 (Homo sapiens (Human), UniProt Q8TDX7)
PIM1 = PIM1 (Homo sapiens (Human), UniProt P11309)
GRK4 = GRK4 (Homo sapiens (Human), UniProt P32298)
TNIK = TNIK (Homo sapiens (Human), UniProt Q9UKE5)
BMPR1B = BMPR1B (Homo sapiens (Human), UniProt O00238)
[5] = biological target: RPS6KA4 (Kin.Dom.1-N-terminal) (Homo sapiens (Human), UniProt O75676)
PFTK1 = PFTK1 (Homo sapiens (Human), UniProt O94921)
FYN = FYN (Homo sapiens (Human), UniProt P06241)
TRKB = TRKB (Homo sapiens (Human), UniProt Q16620)
TIE2 = TIE2 (Homo sapiens (Human), UniProt Q02763)
ERK4 = ERK4 (Homo sapiens (Human), UniProt P31152)
ZAK = ZAK (Homo sapiens (Human), UniProt Q9NYL2)
[6] = biological target: ABL1 (F317I)-nonphosphorylated (Homo sapiens (Human), UniProt P00519, F317I)
BIKE = BIKE (Homo sapiens (Human), UniProt Q9NSY1)

Chain of BLK (P51451 whole entry): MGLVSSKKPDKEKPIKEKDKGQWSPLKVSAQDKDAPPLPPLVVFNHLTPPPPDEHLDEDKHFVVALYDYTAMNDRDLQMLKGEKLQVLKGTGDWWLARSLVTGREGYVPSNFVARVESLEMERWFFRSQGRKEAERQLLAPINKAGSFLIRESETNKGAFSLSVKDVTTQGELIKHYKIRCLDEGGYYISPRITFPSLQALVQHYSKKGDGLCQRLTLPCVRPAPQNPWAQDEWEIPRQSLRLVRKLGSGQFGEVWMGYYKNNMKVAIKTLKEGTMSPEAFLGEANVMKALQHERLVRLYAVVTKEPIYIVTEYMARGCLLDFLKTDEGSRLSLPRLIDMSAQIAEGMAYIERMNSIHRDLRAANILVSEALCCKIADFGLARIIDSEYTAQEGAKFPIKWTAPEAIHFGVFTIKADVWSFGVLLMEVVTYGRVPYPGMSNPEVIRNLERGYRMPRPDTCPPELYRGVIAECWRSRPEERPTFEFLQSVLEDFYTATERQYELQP
Chain of TNIK (Q9UKE5 whole entry): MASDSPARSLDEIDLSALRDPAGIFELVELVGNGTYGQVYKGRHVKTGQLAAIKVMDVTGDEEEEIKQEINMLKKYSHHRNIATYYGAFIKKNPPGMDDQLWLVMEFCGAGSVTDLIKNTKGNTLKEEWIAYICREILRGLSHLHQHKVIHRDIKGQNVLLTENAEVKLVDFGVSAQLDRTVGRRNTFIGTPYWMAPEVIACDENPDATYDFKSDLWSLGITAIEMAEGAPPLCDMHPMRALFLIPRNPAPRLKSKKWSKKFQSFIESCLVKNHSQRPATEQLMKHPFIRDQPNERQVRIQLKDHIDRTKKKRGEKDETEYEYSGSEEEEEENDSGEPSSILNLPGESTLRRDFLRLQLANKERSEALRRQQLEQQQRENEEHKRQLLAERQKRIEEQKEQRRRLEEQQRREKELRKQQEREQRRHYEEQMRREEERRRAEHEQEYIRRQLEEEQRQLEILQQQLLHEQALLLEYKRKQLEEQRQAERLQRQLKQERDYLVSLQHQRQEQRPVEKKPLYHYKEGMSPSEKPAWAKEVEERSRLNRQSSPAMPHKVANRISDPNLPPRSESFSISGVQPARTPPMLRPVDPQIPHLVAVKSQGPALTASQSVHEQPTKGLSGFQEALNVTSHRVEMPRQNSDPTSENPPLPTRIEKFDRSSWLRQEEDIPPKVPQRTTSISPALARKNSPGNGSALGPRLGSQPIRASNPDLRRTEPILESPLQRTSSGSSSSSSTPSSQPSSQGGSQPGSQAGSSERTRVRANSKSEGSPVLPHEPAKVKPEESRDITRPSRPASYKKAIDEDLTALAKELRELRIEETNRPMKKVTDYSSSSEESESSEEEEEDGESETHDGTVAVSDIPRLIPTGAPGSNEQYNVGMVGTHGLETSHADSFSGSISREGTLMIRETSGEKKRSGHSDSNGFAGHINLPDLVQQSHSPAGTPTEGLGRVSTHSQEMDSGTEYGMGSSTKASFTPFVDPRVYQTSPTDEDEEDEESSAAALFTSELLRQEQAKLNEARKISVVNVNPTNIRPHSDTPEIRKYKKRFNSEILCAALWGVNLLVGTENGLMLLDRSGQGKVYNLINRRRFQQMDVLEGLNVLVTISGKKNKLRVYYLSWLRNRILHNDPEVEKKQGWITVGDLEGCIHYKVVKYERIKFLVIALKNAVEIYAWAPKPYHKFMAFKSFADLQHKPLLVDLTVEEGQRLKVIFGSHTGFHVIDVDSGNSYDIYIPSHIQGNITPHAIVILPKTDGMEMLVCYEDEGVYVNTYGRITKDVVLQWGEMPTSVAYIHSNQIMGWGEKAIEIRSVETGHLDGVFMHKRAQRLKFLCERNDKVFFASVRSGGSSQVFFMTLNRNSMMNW
Chain of FGFR2 (P21802 22-821): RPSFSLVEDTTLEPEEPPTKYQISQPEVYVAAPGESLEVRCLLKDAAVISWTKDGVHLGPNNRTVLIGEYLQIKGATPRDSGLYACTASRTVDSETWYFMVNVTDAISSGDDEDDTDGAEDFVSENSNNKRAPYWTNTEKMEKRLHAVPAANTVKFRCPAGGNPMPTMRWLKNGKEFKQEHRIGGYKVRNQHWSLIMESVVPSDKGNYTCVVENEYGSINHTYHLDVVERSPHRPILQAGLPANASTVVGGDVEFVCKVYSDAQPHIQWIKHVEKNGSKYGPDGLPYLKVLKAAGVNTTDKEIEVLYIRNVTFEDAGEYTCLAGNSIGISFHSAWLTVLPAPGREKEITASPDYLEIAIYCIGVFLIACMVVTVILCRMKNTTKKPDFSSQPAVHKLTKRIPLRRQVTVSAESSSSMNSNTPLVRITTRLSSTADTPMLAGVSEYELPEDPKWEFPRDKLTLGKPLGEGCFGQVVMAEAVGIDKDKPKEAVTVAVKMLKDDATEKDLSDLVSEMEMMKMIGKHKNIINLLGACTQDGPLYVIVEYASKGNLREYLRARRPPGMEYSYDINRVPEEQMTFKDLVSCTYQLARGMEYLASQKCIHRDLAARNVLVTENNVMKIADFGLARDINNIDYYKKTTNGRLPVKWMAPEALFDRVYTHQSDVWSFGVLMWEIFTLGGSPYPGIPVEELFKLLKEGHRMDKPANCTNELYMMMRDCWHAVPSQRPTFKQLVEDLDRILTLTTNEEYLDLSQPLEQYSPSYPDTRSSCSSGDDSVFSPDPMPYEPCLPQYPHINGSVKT
Chain of EPHB2 (P29323 19-1055): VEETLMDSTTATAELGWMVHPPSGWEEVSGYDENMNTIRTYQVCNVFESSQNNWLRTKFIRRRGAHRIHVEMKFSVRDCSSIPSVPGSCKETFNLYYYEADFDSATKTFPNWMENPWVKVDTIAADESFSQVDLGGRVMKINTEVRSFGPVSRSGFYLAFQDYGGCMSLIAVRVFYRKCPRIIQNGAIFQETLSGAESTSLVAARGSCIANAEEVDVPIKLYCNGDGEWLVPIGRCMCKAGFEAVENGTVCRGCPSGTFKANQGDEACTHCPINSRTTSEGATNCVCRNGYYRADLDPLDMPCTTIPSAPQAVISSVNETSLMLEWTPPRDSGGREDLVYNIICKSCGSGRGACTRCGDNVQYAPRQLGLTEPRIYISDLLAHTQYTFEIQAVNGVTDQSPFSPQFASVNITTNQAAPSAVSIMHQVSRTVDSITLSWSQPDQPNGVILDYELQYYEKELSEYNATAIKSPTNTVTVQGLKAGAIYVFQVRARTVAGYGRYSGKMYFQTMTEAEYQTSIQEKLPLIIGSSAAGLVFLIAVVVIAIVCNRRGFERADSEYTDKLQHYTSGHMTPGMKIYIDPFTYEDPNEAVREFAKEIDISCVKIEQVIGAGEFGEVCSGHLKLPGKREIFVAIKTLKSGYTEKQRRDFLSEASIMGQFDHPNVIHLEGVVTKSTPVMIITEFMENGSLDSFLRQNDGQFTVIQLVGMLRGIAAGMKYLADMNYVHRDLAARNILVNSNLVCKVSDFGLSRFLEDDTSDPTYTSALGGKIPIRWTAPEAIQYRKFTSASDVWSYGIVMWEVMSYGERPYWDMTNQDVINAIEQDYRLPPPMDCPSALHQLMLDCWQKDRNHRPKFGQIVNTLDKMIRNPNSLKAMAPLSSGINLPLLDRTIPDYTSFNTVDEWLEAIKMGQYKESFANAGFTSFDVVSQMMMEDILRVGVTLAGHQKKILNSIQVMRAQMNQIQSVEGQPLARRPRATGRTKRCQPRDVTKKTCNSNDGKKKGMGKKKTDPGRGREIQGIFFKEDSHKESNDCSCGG
Chain of NEK1 (Q96PY6 whole entry): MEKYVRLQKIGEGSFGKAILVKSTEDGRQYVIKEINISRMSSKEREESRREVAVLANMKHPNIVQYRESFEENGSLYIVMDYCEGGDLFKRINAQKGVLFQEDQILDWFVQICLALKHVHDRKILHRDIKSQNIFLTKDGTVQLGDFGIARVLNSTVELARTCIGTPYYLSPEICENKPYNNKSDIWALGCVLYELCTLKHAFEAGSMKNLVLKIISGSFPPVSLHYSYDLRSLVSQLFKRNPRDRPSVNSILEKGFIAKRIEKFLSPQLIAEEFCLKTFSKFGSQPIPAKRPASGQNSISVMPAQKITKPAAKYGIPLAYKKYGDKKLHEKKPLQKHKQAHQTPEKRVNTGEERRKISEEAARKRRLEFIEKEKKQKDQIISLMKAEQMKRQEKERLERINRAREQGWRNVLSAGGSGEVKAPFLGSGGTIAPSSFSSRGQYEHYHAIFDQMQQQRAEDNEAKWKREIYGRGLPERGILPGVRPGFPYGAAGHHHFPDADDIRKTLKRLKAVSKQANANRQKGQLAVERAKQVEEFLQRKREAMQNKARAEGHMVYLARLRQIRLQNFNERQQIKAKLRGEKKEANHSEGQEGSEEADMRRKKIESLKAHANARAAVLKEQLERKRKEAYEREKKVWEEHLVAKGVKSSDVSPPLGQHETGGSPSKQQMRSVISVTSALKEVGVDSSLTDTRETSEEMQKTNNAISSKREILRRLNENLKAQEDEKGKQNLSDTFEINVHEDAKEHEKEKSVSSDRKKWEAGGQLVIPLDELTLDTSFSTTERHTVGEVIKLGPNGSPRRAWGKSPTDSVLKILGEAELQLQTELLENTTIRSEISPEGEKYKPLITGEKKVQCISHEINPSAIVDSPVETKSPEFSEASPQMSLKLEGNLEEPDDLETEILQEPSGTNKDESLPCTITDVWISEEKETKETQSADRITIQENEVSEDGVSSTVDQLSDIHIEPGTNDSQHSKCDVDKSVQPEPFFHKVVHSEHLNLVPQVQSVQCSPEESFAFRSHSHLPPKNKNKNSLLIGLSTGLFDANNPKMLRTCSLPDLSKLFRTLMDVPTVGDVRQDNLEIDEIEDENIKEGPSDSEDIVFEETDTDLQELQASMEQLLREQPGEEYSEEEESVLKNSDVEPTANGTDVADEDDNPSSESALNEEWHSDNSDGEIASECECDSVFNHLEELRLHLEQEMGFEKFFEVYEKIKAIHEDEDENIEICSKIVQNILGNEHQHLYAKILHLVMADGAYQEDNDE

## COc1ccc(N2C(=O)N(c3c(C)cccc3C)Cc3cnc(Nc4ccc(N5CCN(C)CC5)cc4)nc32)c(OC)c1 [HG-11-136-01]
IGF1R
  KINOMEscan IGF1R: 100
CSNK1D
  KINOMEscan CSNK1D: 100
[1]
  KINOMEscan TYK2 (JH2domain-pseudokinase): 1.2
[2]
  KINOMEscan JAK2 (JH1domain-catalytic): 0.75
FLT3 (N841I)
  KINOMEscan FLT3 (N841I): 11
BLK
  KINOMEscan BLK: 0.1
NLK
  KINOMEscan NLK: 7.6
BMPR2
  KINOMEscan BMPR2: 77
EPHB2
  KINOMEscan EPHB2: 0
ULK2
  KINOMEscan ULK2: 2.2
LZK
  KINOMEscan LZK: 4
GSK3B
  KINOMEscan GSK3B: 100
PRKCH
  KINOMEscan PRKCH: 100
[3]
  KINOMEscan RSK1 (Kin.Dom.2-C-terminal): 9.7
AURKC
  KINOMEscan AURKC: 33
MLK2
  KINOMEscan MLK2: 11
[4]
  KINOMEscan RSK1 (Kin.Dom.1-N-terminal): 48
CDK4-cyclinD1
  KINOMEscan CDK4-cyclinD1: 9
NEK1
  KINOMEscan NEK1: 88
MEK5
  KINOMEscan MEK5: 0.1
WNK1
  KINOMEscan WNK1: 89
CDK11
  KINOMEscan CDK11: 89
YANK1
  KINOMEscan YANK1: 0.2
PIM2
  KINOMEscan PIM2: 100
FGFR2
  KINOMEscan FGFR2: 0.8
p38-alpha
  KINOMEscan p38-alpha: 1
CAMK4
  KINOMEscan CAMK4: 100
NEK7
  KINOMEscan NEK7: 100
PIM1
  KINOMEscan PIM1: 100
GRK4
  KINOMEscan GRK4: 26
TNIK
  KINOMEscan TNIK: 2.8
BMPR1B
  KINOMEscan BMPR1B: 0
[5]
  KINOMEscan RPS6KA4 (Kin.Dom.1-N-terminal): 79
PFTK1
  KINOMEscan PFTK1: 100
FYN
  KINOMEscan FYN: 0.35
TRKB
  KINOMEscan TRKB: 63
TIE2
  KINOMEscan TIE2: 0.75
ERK4
  KINOMEscan ERK4: 95
ZAK
  KINOMEscan ZAK: 1.2
[6]
  KINOMEscan ABL1 (F317I)-nonphosphorylated: 0
BIKE
  KINOMEscan BIKE: 8.8
